Read-outs that look alike come from different tables or passages of the source.
Tests used:
[1] = system: Truncated N-terminal huntington 150 Q-EGFP-Neuron 2a cells; test: Measurement of x-Fold (polyglutamine aggregation inhibitory activity); format: cell-based
Protocol: In the present invention, the polyglutamine aggregation inhibitory activity (x-Fold) can be measured, for example, by the method described in the Example.
The number of the aggregated cells, and the total number of cells were counted by Array Scan V T1 (manufactured by Cellomics, Pittuburg, USA), and the ratio of the aggregated cells to the total number of cells was determined (x-Fold). […]

[2] = system: SOC (store operated calcium channel); test: Measurement of SOC IC50 (thapsigargin store depletion, calcium re-addition, CHO cells); format: cell-based; conditions: read-out: SOC IC50
Protocol: The SOC (store operated calcium channel)-suppressive action can be measured by the method described in the Example and using, for example, FDSS 3000.
CHO cell culture medium was replaced with a BSS solution which is an extracellular fluidfree of calcium, the compound of the present invention was added 1 min later, and 1 μM thapsigargin was allowed to act thereon 2 min later to deplete intracellular calcium store. […]

[3] = system: transglutaminase (TGase); test: Measurement of TG (TGase inhibitory activity, monodansyl cadaverine / N,N-dimethylcasein fluorescence, FDSS 3000); format: biochemical
Summary of the method: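 Compound (1 μL of 10 mM stock) added to 0.1 mL reaction: 100 mM HEPES-NaOH pH 7.5, 1 mM CaCl2, 20 μM monodansyl cadaverine, 0.05 mg/mL N,N-dimethylcasein, 5 μg/mL TGase. Rate of fluorescence change at 340 nm measured; DMSO control set to 100; TG50 is the concentration halving activity.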

[4] = polyglutamine aggregation inhibitory activity, Table 1
[5] = polyglutamine aggregation, Truncated N-terminal huntington 150 Q-EGFP-Neuron 2a cells
[6] = ratio of aggregated cells to total number of cells, compound 20 μM, 20 hr, almost 1 without compound, smaller = stronger inhibition
[7] = CHO cells, 1 μM thapsigargin, 2 mM calcium chloride
[8] = TGase activity with compound (10 mM, 1 μL in 0.1 ml enzyme reaction solution), DMSO control taken as 100
[9] = TGase inhibitory activity measurement, unit not given

| SMILES | IC50 [2, 7] [nM] | TGase activity remaining (% of DMSO control = 100) [3, 8] | TGase activity remaining (% of DMSO control = 100) [3, 9] | IC50 ([2]; Table 1) [nM] | IC50 ([2]; CHO cells, 1 μM thapsigargin, 2 mM calcium chloride, no unit printed) [nM] | TGase activity remaining (% of DMSO control = 100) ([3]; TGase inhibitory activity measurement, unit not given, listed as 3021) | x-Fold [1, 4] | x-Fold [1, 5] | x-Fold [1, 6] | x-Fold ([1]; polyglutamine aggregation, Truncated N-terminal huntington 150 Q-EGFP-Neuron 2a cells, listed as 3021) |
| --- | --- | --- | --- | --- | --- | --- | --- | --- | --- | --- |
| CNCCOB(c1ccccc1)c1ccc(COc2ccc(B(OCCNC)c3ccccc3)cc2)cc1 [Example 427, (4-phenyl-N-methylaminoethoxyborylphenyl) (4′-phenyl-N-methylaminoethoxyborylbenzyl)ether] | 800 | 20 | 20 |  |  |  | 1.02 | 0.73 | 0.73 |  |
| CN(C)CCOB(c1ccccc1)c1ccc(COc2ccc(B(OCCN(C)C)c3ccccc3)cc2)cc1 [Example 428, (4-phenyl-N,N-dimethylaminoethoxyborylphenyl) (4′-phenyl-N,N-dimethylaminoethoxyborylbenzyl)ether] | 1500 | 53 | 53 |  |  |  | 0.98 | 0.82 | 0.82 |  |
| c1ccc(B(OCc2ccccn2)c2ccc(COc3ccc(B(OCc4ccccn4)c4ccccc4)cc3)cc2)cc1 [Example 429, (4-phenyl-2-pyridylmethoxyborylphenyl)(4′-phenyl-2-pyridylmethoxyborylbenzyl)ether] | 700 | 102 | 102 |  |  |  |  | 0.81 | 0.81 |  |
| c1ccc(B(OCc2ccccn2)c2ccc(Oc3ccc(B(OCc4ccccn4)c4ccccc4)cc3)cc2)cc1 [Example 432, bis(4,4′-(phenyl-2-pyridylmethoxyboryl)phenyl)ether] | 300 | 60 | 60 |  |  |  |  | 0.71 | 0.71 |  |
| NCCSB(c1ccccc1)c1ccc(Oc2ccc(B(SCCN)c3ccccc3)cc2)cc1 [Example 433, bis(4,4′-(phenyl-aminoethylthioboryl)phenyl)ether] | 500 | −5 | −5 |  |  |  |  | 0.71 | 0.71 |  |
| NCC(OB(c1ccccc1)c1ccc(Oc2ccc(B(OC(CN)c3ccccc3)c3ccccc3)cc2)cc1)c1ccccc1 (stereo not drawn) [Example 434, bis(4,4′-(phenyl-2-amino-1-phenylethoxyboryl)phenyl)ether] | 400 | 43 | 43 | 1500 |  |  | 0.06 | 0.60 | 0.60 |  |
| NCCCC(N)C(=O)OB(c1ccccc1)c1ccc(Oc2ccc(B(OC(=O)C(N)CCCN)c3ccccc3)cc2)cc1 (stereo not drawn) [Example 435, bis(4,4′-(phenyl-ornithineboryl)phenyl)ether] | 2000 | 26 | 26 |  |  |  |  | 0.84 | 0.84 |  |
| c1ccc(B(OCC2CCCN2)c2ccc(Oc3ccc(B(OCC4CCCN4)c4ccccc4)cc3)cc2)cc1 (stereo not drawn) [Example 438, bis(4,4′-(phenyl-2-pyrrolidinemethoxyboryl)phenyl)ether] | 2000 | 29 | 29 |  |  |  |  | 0.67 | 0.67 |  |
| c1ccc(COB(c2ccc(Oc3ccc(B(OCc4ccccn4)c4cccc5ccccc45)cc3)cc2)c2cccc3ccccc23)nc1 [Example 443, bis(4,4′-(naphthyl-2-pyridylmethoxyboryl)phenyl)ether] | 3000 | 84 | 84 |  |  |  |  | 0.63 | 0.63 |  |
| NC(=O)CCC(N)C(=O)OB(c1ccc(Oc2ccc(B(OC(=O)C(N)CCC(N)=O)c3cccc4ccccc34)cc2)cc1)c1cccc2ccccc12 (stereo not drawn) [Example 444, bis(4,4′-(naphthylglutamineboryl)phenyl)ether] | 1400 | 20 | 20 |  |  |  |  | 0.65 | 0.65 |  |
| NCCSB(c1ccccc1)c1ccc(COCc2ccc(B(SCCN)c3ccccc3)cc2)cc1 [Example 451, bis(4,4′-(phenyl-aminoethylthioboryl)benzyl)ether] | 1400 | 6 | 6 |  |  |  |  | 0.91 | 0.91 |  |
| c1ccc(B(OCC2CCCN2)c2ccc(COCc3ccc(B(OCC4CCCN4)c4ccccc4)cc3)cc2)cc1 (stereo not drawn) [Example 452, bis(4,4′-(phenyl-2-pyrrolidinemethoxyboryl)benzyl)ether] | 500 | 29 | 29 |  |  |  |  | 0.96 | 0.96 |  |
| CCCCNCCOB(c1ccccc1)c1ccc(COCc2ccc(B(OCCNCCCC)c3ccccc3)cc2)cc1 [Example 454, bis(4,4′-(phenyl-butylaminoethoxyboryl)benzyl)ether] | 500 | 15 | 15 |  |  |  |  | 0.97 | 0.97 |  |
| c1ccc(NCCOB(c2ccccc2)c2ccc(COCc3ccc(B(OCCNc4ccccc4)c4ccccc4)cc3)cc2)cc1 [Example 455, bis(4,4′-(phenyl-phenylaminoethoxyboryl)benzyl)ether] | 500 | 23 | 23 |  |  |  |  | 1.04 | 1.04 |  |

The next lines start with results.

| IC50 [2, 7] [nM] | TGase activity remaining (% of DMSO control = 100) [3, 8] | TGase activity remaining (% of DMSO control = 100) [3, 9] | IC50 ([2]; Table 1) [nM] | IC50 ([2]; CHO cells, 1 μM thapsigargin, 2 mM calcium chloride, no unit printed) [nM] | TGase activity remaining (% of DMSO control = 100) ([3]; TGase inhibitory activity measurement, unit not given, listed as 3021) | SMILES | x-Fold [1, 4] | x-Fold [1, 5] | x-Fold [1, 6] | x-Fold ([1]; polyglutamine aggregation, Truncated N-terminal huntington 150 Q-EGFP-Neuron 2a cells, listed as 3021) |
| --- | --- | --- | --- | --- | --- | --- | --- | --- | --- | --- |
| 500 | 29 | 29 |  |  |  | c1ccc(CNCCOB(c2ccccc2)c2ccc(COCc3ccc(B(OCCNCc4ccccc4)c4ccccc4)cc3)cc2)cc1 [Example 456, bis(4,4′-(phenyl-benzylaminoethoxyboryl)benzyl)ether] |  | 0.87 | 0.87 |  |
| 600 | 30 | 30 |  |  |  | CN1CCCCC1COB(c1ccccc1)c1ccc(COCc2ccc(B(OCC3CCCCN3C)c3ccccc3)cc2)cc1 (stereo not drawn) [Example 457, bis(4,4′-(phenyl-N-methylpiperidine-methoxyboryl)benzyl)ether] |  | 1.10 | 1.10 |  |
| 500 | 31 | 31 |  |  |  | CC(CN)OB(c1ccccc1)c1ccc(COCc2ccc(B(OC(C)CN)c3ccccc3)cc2)cc1 (stereo not drawn) [Example 458, bis(4,4′-(phenyl-1-methyl-2-aminoethoxyboryl)benzyl)ether] |  | 1.10 | 1.10 |  |
| 400 | 26 | 26 |  |  |  | c1ccc(B(OCC2CCCN2)c2cccc(COCc3cccc(B(OCC4CCCN4)c4ccccc4)c3)c2)cc1 (stereo not drawn) [Example 460, bis(3,3′-(phenyl-2-pyrrolidinomethoxyboryl)benzyl)ether] |  | 0.95 | 0.95 |  |
| 300 | 31 | 31 |  |  |  | NC(COB(c1ccccc1)c1cccc(COCc2cccc(B(OCC(N)c3ccccc3)c3ccccc3)c2)c1)c1ccccc1 (stereo not drawn) [Example 462, bis(3,3′-(phenyl-2-phenyl-2-aminoethoxyboryl)benzyl)ether] |  | 0.92 | 0.92 |  |
| 300 | 24 | 24 |  |  |  | c1ccc(B(OCC2CCCCN2)c2cccc(COCc3cccc(B(OCC4CCCCN4)c4ccccc4)c3)c2)cc1 (stereo not drawn) [Example 463, bis(3,3′-(phenyl-2-piperidylmethoxyboryl)benzyl)ether] |  | 0.92 | 0.92 |  |
|  | 41 |  |  | 800 | 41 | CN(C)CCOB(c1ccccc1)c1cccc(COCc2cccc(B(OCCN(C)C)c3ccccc3)c2)c1 [Example 464, bis(3,3′-(phenyl-dimethylaminoethoxyboryl)benzyl)ether] |  |  | 0.76 | 0.76 |
| 200 | 18 | 18 |  |  |  | CC(CN)OB(c1ccccc1)c1cccc(COCc2cccc(B(OC(C)CN)c3ccccc3)c2)c1 (stereo not drawn) [Example 465, bis(3,3′-(phenyl-1-methyl-2-aminoethoxyboryl)benzyl)ether] |  | 1.06 | 1.06 |  |
